The target of assay [1] is T1, Protein cereblon/Interleukin-1 receptor-associated kinase 4 (Homo sapiens, UniProt Q9NWZ3+Q96SW2). As to the kind of experiment: PROTAC activity at CRBN/IRAK4 in human KARPAS-299 cells assessed as induction of IRAK4 degradation incubated for 24 hrs by TR-FRET assay relative to control. It is filed as cell-based.
Target sequence in this assay (Q96SW2 whole entry, looked up): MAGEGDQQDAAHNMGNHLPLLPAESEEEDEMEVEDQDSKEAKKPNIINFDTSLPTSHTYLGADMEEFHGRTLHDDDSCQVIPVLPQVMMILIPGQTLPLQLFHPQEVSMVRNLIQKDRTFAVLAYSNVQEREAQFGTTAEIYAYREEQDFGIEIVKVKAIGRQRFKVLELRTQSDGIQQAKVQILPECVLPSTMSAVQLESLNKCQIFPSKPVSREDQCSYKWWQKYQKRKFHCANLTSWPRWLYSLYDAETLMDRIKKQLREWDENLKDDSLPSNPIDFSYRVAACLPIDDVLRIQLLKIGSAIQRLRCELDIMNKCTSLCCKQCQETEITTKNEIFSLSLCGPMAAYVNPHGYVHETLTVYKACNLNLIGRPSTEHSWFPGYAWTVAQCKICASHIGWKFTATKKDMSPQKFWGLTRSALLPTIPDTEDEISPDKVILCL
Target sequence in this assay (Q9NWZ3 whole entry, looked up): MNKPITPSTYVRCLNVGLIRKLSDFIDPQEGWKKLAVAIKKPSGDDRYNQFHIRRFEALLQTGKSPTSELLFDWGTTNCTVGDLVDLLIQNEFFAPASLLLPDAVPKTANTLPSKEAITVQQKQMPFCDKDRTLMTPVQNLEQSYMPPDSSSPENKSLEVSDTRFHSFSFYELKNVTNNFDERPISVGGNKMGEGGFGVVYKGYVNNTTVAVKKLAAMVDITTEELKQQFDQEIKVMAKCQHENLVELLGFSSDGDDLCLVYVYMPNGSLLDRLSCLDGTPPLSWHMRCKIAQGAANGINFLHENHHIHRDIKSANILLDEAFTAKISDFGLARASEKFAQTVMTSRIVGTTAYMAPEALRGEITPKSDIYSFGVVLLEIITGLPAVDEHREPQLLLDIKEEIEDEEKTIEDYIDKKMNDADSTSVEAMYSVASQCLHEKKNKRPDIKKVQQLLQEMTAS
Assay [2] addresses T1, Protein cereblon/Interleukin-1 receptor-associated kinase 4. As to the kind of experiment: PROTAC activity at CRBN/IRAK4 in human KARPAS-299 cells assessed as induction of IRAK4 degradation incubated for 24 hrs by TR-FRET assay. It is filed as cell-based.
Target sequence in this assay (Q9NWZ3 whole entry): as the sequence (Q9NWZ3 whole entry, looked up) above
Target sequence in this assay (Q96SW2 whole entry): as the sequence (Q96SW2 whole entry, looked up) above

This passage reports Emax and DC50 results from ChEMBL document CHEMBL5532723, “Advances in Targeted Therapies for Inflammatory Diseases and Cancer: Exploring Cellular Mechanisms and Therapeutic Strategies” (ACS Med Chem Lett, 2024).

Structures are written as SMILES.

As to `CC(C)(O)c1cc2nn([C@H]3CC[C@H](N4CCN(C5CN(c6cc(F)c([C@H]7CCC(=O)NC7=O)c(F)c6)C5)CC4)CC3)cc2cc1NC(=O)c1ccc2cc(C#N)cnn12`, in assay [1], the maximal response (Emax) stood at 100%. The DC50 in assay [2] stood at 8.3 nM.

Turning to `CC(C)(O)c1cc2nn([C@H]3CC[C@H](N4CCN(CCc5cc(F)c([C@H]6CCC(=O)NC6=O)c(F)c5)CC4)CC3)cc2cc1NC(=O)c1ccc2cc(C#N)cnn12`, the Emax in assay [1] was 99%. Besides, in assay [2], the DC50 was 3.7 nM.

`CC(C)(O)c1cc2nn([C@H]3CC[C@H](N4CCN(CCNc5cc(F)c(C6CCC(=O)NC6=O)c(F)c5)CC4)CC3)cc2cc1NC(=O)c1ccc2cc(C#N)cnn12` (some centres not stated): in assay [1], the maximal response (Emax) turned out to be 100%. The 50% degradation concentration (DC50) in assay [2] was 7.1 nM.

Regarding `CC(C)(O)c1cc2nn(C34CCC(N5CCN(CCc6cc(F)c([C@H]7CCC(=O)NC7=O)c(F)c6)CC5)(CC3)CC4)cc2cc1NC(=O)c1ccc2cc(C#N)cnn12`, the maximal effect (Emax) in assay [1] turned out to be 101%. Moreover, the DC50 in assay [2] was determined as 3.9 nM.

Consider `CC(C)(O)c1cc2nn([C@H]3C[C@H](N4CCN(C(=O)C5CN(c6cc(F)c([C@H]7CCC(=O)NC7=O)c(F)c6)C5)CC4)C3)cc2cc1NC(=O)c1ccc2cc(C#N)cnn12`, for which the maximum response (Emax) in assay [1] turned out to be 99%. Also, in assay [2], the DC50 is 11 nM.

`CC(C)(O)c1cc2nn(C34CC(N5CCN(CCc6cc(F)c([C@H]7CCC(=O)NC7=O)c(F)c6)CC5)(C3)C4)cc2cc1NC(=O)c1ccc2cc(C#N)cnn12`: the Emax in assay [1] was 94%. Besides, the DC50 in assay [2] was 5.2 nM.
